Columns and labels:
rhesus H3 receptor = assay: GTPγS radioligand binding assay: inhibition of rhesus H3 constitutive functional activity in cell membranes (inverse agonism); assay type: biochemical, rhesus monkey (Macacca Mulatta); design: concentration or dose not given beside the values; conditions: negative value = below basal level
Protocol: (§1) Rhesus H3 membranes were prepared from the Flp-In T-REx 293 Cell Line (Invitrogen) stably transfected with pcDNA5/FRT/TO (Invitrogen) containing the rhesus monkey (Macacca Mulatta) 445 amino acid H3 receptor. (Genbank #AY231164). Stably transfected cultures were amplified in tissue culture flasks by standard tissue culture methods and induced to express rhesus H3 by exposure to 500 ng/ml tetracycline (Cellgro) for 24 hours. After induction, cells were dissociated from flasks utilizing Cell Stripper (Cellgro). Cells were centrifuged (1K×g, 5 min) and pellet frozen in an ethanol-dry ice bath to disrupt cell membranes. Frozen cell pellet was re-suspended in 5 mM HEPES (pH 7.4, Invitrogen) at 10 ml/1000 cm2 of harvested cells. The cell suspension was drawn through an 18 gauge needle (2-3×) followed by a 23 gauge needle (2-3×) to further disrupt cell membranes. The cell suspension was centrifuged (40K×g, 30 min). Cell membrane pellet was re-suspended in 5 mM HEPES (pH 7.4, Invitrogen) at a final protein concentration of 10 mg/ml. Rhesus H3 membranes were stored under liquid nitrogen prior to use in [3H]-Methylhistamine and GTP S radioligand binding assays.

[1] = target: T1, rhesus (Macacca Mulatta) H3 receptor (Macaca mulatta, UniProt Q865E1); assay: Rhesus H3 radioligand binding assay ([3H]-methylhistamine displacement, WGA SPA beads); design: species or system rhesus monkey (Macacca Mulatta); conditions: [3H]-methylhistamine 2 nM; membranes of Flp-In T-REx 293 cells expressing rhesus H3; Cheng-Prusoff
T1 construct: pcDNA5/FRT/TO (Invitrogen) containing the rhesus monkey (Macacca Mulatta) 445 amino acid H3 receptor
Protocol: as §1
Rhesus H3 radioligand binding assay was performed using rhesus H3 receptor membranes (prepared as described above), [3H]-Methylhistamine (Perkin Elmer) and WGA SPA beads (wheat germ agglutinin scintillation proximity assay) beads (Amersham). The assay was performed in 96-well Opti-Plates (Packard). Each reaction contained 50 μl rhesus H3 membranes (20-30 μg total protein), 50 μl WGA SPA beads (0.1 μg) and 50 μl of 83 Ci/mmol [^3H]-Methylhistamine (final concentration 2 nM) and 50 μl of tested compound. The compounds of this invention and/or vehicle were diluted with binding buffer from 10 mM DMSO stocks. Assay plates were sealed with TopSeal (Perkin Elmer) and mixed on shaker (25° C., 1 hour). Assay plates were read on TopCount scintillation counter (Packard). Results were analyzed by Hill transformation and Ki values were determined by Cheng-Prusoff equation.

T1 sequence (Q865E1 1-445): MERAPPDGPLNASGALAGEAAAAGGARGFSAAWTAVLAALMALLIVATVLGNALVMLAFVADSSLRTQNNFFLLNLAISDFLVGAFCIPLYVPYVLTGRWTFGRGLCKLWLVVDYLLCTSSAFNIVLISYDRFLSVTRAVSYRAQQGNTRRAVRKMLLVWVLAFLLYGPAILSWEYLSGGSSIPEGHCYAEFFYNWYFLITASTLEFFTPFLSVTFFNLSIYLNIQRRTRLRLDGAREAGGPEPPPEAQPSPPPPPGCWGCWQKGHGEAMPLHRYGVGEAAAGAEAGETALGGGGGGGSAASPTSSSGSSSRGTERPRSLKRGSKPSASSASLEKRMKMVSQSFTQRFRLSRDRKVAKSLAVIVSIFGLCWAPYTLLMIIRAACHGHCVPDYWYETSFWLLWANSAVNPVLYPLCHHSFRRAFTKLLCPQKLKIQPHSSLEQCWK

Compound	Ki [1]	Inverse Agonism: % inhibition of Basal GTPγS binding in Rhesus H3 (rhesus H3 receptor)
Cc1cc(N2CC[C@H](N3CCC[C@H]3C)C2)ccc1N1CCCC2(CCOCC2)C1=O [Example 28, 2-[2-Methyl-4-((2R,3′S)-2-methyl-[1,3′]bipyrrolidinyl-1′-yl)-phenyl]-9-oxa-2-aza-spiro[5.5]undecan-1-one]	13 nM	−13%
Cc1cc(N2CC[C@@H](N3CCC[C@H]3C)C2)ccc1N1CCC2(CCOCC2)C1=O [Example 29, 2-[2-Methyl-4-((2R,3′R)-2-methyl-[1,3′]bipyrrolidinyl-1′-yl)-phenyl]-8-oxa-2-aza-spiro[4.5]decan-1-one]	28 nM	−28%
Cc1cc(N2CC[C@@H](N3CCC[C@@H]3C)C2)ccc1N1CCC2(CCOCC2)C1=O [Example 30]	4.3 nM	−29%
Cc1cc(N2CCC(N3CCCC3C)C2)ccc1N1CCC2(CCOCC2)C1=O (centres unmarked) [Example 31, 2-[2-Methyl-4-(2-methyl-[1,3′]bipyrrolidinyl-1′-yl)-phenyl]-8-oxa-2-aza-spiro[4.5]decan-1-one]	6.2 nM	−28%
Cc1cc(N2CC[C@@H](N3CCC[C@H]3C)C2)ccc1N1CCCC2(CCOCC2)C1=O [Example 32, 2-[2-Methyl-4-((2R,3′R)-2-methyl-[1,3′]bipyrrolidinyl-1′-yl)-phenyl]-9-oxa-2-aza-spiro[5.5]undecan-1-one]	11 nM	−15%
Cc1cc(N2CC[C@@H](N3CCC[C@@H]3C)C2)ccc1N1CCCC2(CCOCC2)C1=O [Example 33]	1.4 nM	−19%
C[C@@H]1CCCN1[C@H]1CCN(c2ccc(N3CCCC4(CCOCC4)C3=O)c(F)c2)C1 [Example 38, 2-[2-Fluoro-4-((2R,3′S)-2-Methyl-[1,3′]bipyrrolidinyl-1′-yl)-phenyl]-9-oxa-2-aza-spiro[5.5]undecan-1-one]	1.3 nM	−22%
C[C@@H]1CCCN1[C@@H]1CCN(c2ccc(N3CCCC4(CCOCC4)C3=O)c(F)c2)C1 [Example 39, 2-[2-Fluoro-4-((2R,3′R)-2-Methyl-[1,3′]bipyrrolidinyl-1′-yl)-phenyl]-9-oxa-2-aza-spiro[5.5]undecan-1-one]	0.75 nM	−13%
C[C@H]1CCCN1[C@@H]1CCN(c2ccc(N3CCCC4(CCOCC4)C3=O)c(F)c2)C1 [Example 40, 2-[2-Fluoro-4-((2S,3′R)-2-Methyl-[1,3′]bipyrrolidinyl-1′-yl)-phenyl]-9-oxa-2-aza-spiro[5.5]undecan-1-one]	0.09 nM	−18%

The next lines start with results.

Ki [1]	Compound	Inverse Agonism: % inhibition of Basal GTPγS binding in Rhesus H3 (rhesus H3 receptor)
1.7 nM	C[C@@H]1CCCN1[C@H]1CCN(c2ccc(N3CCCC4(CCOCC4)C3=O)cc2)C1 [Example 34, 2-[4-((2R,3′S)-2-Methyl-[1,3′]bipyrrolidinyl-1′-yl)-phenyl]-9-oxa-2-aza-spiro[5.5]undecan-1-one]	−12%
0.7 nM	C[C@@H]1CCCN1[C@@H]1CCN(c2ccc(N3CCCC4(CCOCC4)C3=O)cc2)C1 [Example 35, 2-[4-((2R,3′R)-2-Methyl-[1,3′]bipyrrolidinyl-1′-yl)-phenyl]-9-oxa-2-aza-spiro[5.5]undecan-1-one]	−13%
0.26 nM	C[C@H]1CCCN1[C@@H]1CCN(c2ccc(N3CCCC4(CCOCC4)C3=O)cc2)C1 [Example 36, 2-[4-((2S,3′R)-2-Methyl-[1,3′]bipyrrolidinyl-1′-yl)-phenyl]-9-oxa-2-aza-spiro[5.5]undecan-1-one]	−10%
0.1 nM	C[C@H]1CCCN1[C@H]1CCN(c2ccc(N3CCCC4(CCOCC4)C3=O)cc2)C1 [Example 37, 2-[4-((2S,3′S)-2-Methyl-[1,3′]bipyrrolidinyl-1′-yl)-phenyl]-9-oxa-2-aza-spiro[5.5]undecan-1-one]	−20%

Source: US8383814B2, “Substituted tetrahydropyran spiro pyrrolidinone and piperidinone, preparation and therapeutic use thereof” (Sanofi, priority 2008, dated 2013)
